# Values of other authors as cited in patent US20070105828A1, “Novel polymorph form M of mifepristone and process for its preparation” (Glenmark Pharmaceuticals Limited, priority 2005, published 2007).
# Target: glucocorticoid receptor (Homo sapiens, UniProt P04150)
# Conditions: relative to dexamethasone; background statement
# Chain of glucocorticoid receptor (P04150 whole entry, species assumed): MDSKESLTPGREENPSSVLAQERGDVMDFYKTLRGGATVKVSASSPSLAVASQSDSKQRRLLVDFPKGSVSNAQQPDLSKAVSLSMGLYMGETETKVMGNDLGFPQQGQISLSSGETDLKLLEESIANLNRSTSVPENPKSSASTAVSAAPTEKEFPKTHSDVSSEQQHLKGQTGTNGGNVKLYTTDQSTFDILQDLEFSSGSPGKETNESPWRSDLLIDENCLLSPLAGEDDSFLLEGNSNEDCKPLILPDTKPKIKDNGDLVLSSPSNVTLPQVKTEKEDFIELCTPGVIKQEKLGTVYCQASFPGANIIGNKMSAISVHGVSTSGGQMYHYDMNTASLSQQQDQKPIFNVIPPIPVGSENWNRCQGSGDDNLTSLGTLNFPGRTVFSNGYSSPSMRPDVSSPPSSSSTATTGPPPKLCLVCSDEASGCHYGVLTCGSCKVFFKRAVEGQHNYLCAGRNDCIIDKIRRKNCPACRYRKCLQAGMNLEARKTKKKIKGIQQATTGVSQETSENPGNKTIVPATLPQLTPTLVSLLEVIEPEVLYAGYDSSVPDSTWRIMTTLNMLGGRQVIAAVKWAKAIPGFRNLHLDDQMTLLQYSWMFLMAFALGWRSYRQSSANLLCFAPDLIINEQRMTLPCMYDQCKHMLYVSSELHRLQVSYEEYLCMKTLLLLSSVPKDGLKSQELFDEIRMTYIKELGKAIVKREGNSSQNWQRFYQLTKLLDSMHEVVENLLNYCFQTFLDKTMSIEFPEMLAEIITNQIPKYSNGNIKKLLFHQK
compound,measurement,value
"CC#C[C@]1(O)CC[C@H]2[C@@H]3CCC4=CC(=O)CCC4=C3[C@@H](c3ccc(N(C)C)cc3)C[C@@]21C [Mifepristone, (11β,17β)-11-[4-(N,N-dimethylamino)phenyl]-17-hydroxy-17-(1-propynyl)estra-4,9-diene-3-one]",affinity for the glucocorticoid receptor compared with dexamethasone,three times greater than that of dexamethasone
